Data: US11298367B2, “Prodrugs of substituted triazole derivatives and uses thereof” (Bayer Aktiengesellschaft, priority 2017, dated 2022)
Like-named read-outs stand apart in the source and are kept apart here.

What was measured:
vasopressin V2 receptor = biological target: T1, vasopressin V2 receptor (Rattus norvegicus, UniProt Q00788); assay: Diuresis investigations in conscious rats kept in metabolism cages; assay type: in vivo; conditions: Wistar rats, i.v., solvent control = 100%
T1 construct: from tissue; host or cells: whole animal (conscious Wistar rats; renal V2 receptors)
T1 sequence (Q00788 whole entry): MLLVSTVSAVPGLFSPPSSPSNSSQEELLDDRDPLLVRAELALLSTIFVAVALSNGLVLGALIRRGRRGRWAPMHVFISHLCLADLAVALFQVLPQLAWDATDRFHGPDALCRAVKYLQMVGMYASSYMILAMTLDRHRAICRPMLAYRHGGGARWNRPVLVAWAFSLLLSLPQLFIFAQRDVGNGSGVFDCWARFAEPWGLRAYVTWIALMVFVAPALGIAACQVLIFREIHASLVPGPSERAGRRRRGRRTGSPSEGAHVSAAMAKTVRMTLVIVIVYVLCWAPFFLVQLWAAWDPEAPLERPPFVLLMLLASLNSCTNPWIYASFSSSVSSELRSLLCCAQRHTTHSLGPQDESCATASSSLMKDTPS
Procedure: B-8. In Vivo Assay for Detecting Vasopressin V2 Receptor-Meidated Effects: Diuresis Investigations in Conscious Rats Kept in Metabolism Cages
Wistar rats (400-500 g body weight) are kept with free access to feed (Altromin) and drinking water. During the experiment, the animals are kept with free access to drinking water for 7 hours individually in metabolism cages suitable for rats of this weight class (Tecniplast Deutschland GmbH, D-82383 Hohenpeißenberg). At the beginning of the experiment, the animals are administered the test substance in a volume of 1 ml/kg body weight of a suitable solvent (2-Hydroxylpropyl-beta-cyclodextrin) by intravenous application. Control animals only receive solvent. Controls and substance tests are carried out in parallel on the same day. Control groups and substance-dose groups each consist of 6 to 8 animals. During the experiment, the urine excreted by the animals is collected continuously in a receiver at the base of the cage. The volume of urine is determined separately for each animal. Before the beginning of the experiment, the body weight of the individual animals is determined.
Following intravenous administration, in comparison with the solvent control applications, a vasopressin V2 receptor blocking compound would bring about an increased excretion of urine, which is based essentially on an increased excretion of water (aquaresis).

human platelets = assay: Inhibition of vasopressin induced aggregation of human platelets; assay type: cell-based; conditions: human platelet rich plasma, AVP 100 nM
Procedure: B-5. Inhibition of Vasopressin Induced Aggregation of Human Platelets for Verification of Prodrug Conversion into Drug
Human platelets endogenously express the V1a receptor. […] Therefore, platelets enriched from human blood may serve as a V1a expressing tissue for pharmacological studies with vasopressin antagonists.
To verify the conversion of prodrugs into the respective drugs, the prodrugs are incubated with and without alkaline phosphatase. Cleavage of the phosphate moiety by alkaline phosphatase converts the prodrug into the drug. As prodrug and underlying respective drug show different IC50 values, the value of the prodrug after alkaline phosphatase treatment resembles the IC50 of the respective drug.
100 μl of test compound at a concentration of 100 μM are incubated for 15 min with 500 units alkaline phosphatase at 37° C. in modified Tyrode buffer (134 mM NaCl, […], 0.34 mM NaH2PO4*H2O, 2.9 mM KCl, 5 mM HEPES, 5 mM Glucose) and stored at 4° C. until further use in the platelet aggregation assay.
Platelet-rich plasma (PRP) is obtained by centrifugation of the blood sample at 140 g for 20 min at room temperature. The resulting pellet is discarded and the PRP further centrifuged (11.000 rpm, 1 min) to produce platelet-poor plasma (PPP). Platelet aggregation is measured turbidimetrically using an aggregometer (APACT 4). The reaction is followed by monitoring changes in light transmission on 178 μL PRP aliquots, under continuous stirring at 37° C., against PPP control. Various concentrations of vasopressin antagonists (in 2 μL) are added to PRP 5 min before the addition of 20 μL AVP (final concentration 100 nM). The inhibitory effects of the compounds are determined by measuring the maximal amplitude of the aggregation curve compared with the control response. IC50 values are calculated on the basis of a concentration-response inhibition curve by an iterative nonlinear regression program. All values are expressed as mean values (Table 3A).

[1] = with alkaline phosphatase, read-out: IC50 with AP
[2] = without alkaline phosphatase, read-out: IC50 without AP

Row | SMILES | Urinary volume (vasopressin V2 receptor; dosage 0.3 mg/kg) | Urinary volume (vasopressin V2 receptor; dosage 1.0 mg/kg) | Urinary volume (vasopressin V2 receptor; dosage 3.0 mg/kg) | IC50 (human platelets; [1]) | IC50 (human platelets; [2])
1 | NC(=O)c1nc(Cn2nc(-c3ccc(Cl)cc3)n(C[C@H](OP(=O)(O)O)C(F)(F)F)c2=O)nn1-c1ncccc1C(F)(F)F [Example 1, (2S)-3-[1-({5-Carbamoyl-1-[3-(trifluoromethyl)pyridin-2-yl]-1H-1,2,4-triazol-3-yl}methyl)-3-(4-chlorophenyl)-5-oxo-1,5-dihydro-4H-1,2,4-triazol-4-yl]-1,1,1-trifluoropropan-2-yl Dihydrogen Phosphate] | 127 % vs. control | 117 % vs. control | 108 % vs. control | 0.0127 µM | 0.145 µM
2 | NC(=O)c1nc(Cn2nc(-c3ccc(Cl)cc3)n(C[C@H](O)C(F)(F)F)c2=O)nn1-c1ncccc1C(F)(F)F [Example 4A, 3-({3-(4-Chlorophenyl)-5-oxo-4-[(2S)-3,3,3-trifluoro-2-hydroxypropyl]-4,5-dihydro-1H-1,2,4-triazol-1-yl}methyl)-1-[3-(trifluoromethyl)pyridin-2-yl]-1H-1,2,4-triazole-5-carboxamide] | 95 % vs. control | 154 % vs. control | 134 % vs. control | 0.0102 µM | 0.0211 µM
